The source of these data is paper PMC8113231 (Nature Communications, 2021).

Where a SMILES comes first, the peptide text is derived from it. Bridges are numbered along the chain shown (N, C = ends). [ ]: non-standard residue; d: D form. NMeF = CN[C@@H](Cc1ccccc1)C(=O)O; NMeS = CN[C@@H](CO)C(=O)O; Sar = CNCC(=O)O

Data set [1] relates to A/whooper swan/Hokkaido/1/08 (H5N1). The arrangement: species or system BALB/c mice. The settings on record: mouse, in vivo, 1.9 mg/kg/day.
The test system of data set [2] is A/Vietnam/UT3040/2004 (H5N1/Vietnam). Further details: species or system cynomolgus monkeys. The settings on record: cynomolgus monkey, in vivo.
For data set [3], the system named is HA on H1N1 virions. The class given is binding, influenza A virus.
The test system of data set [4] is H1N1/Tokyo2619. It is filed as cell-based, influenza A virus.
Data set [5] has as its system HA from A/California/07/2009 (H1N1). The class given is cell-based, influenza A virus.
In data set [6] the test system is H5N1/Vac-3. The class given is cell-based, influenza A virus.
For data set [7], the system named is HA on H2N2 virions. It is filed as binding, influenza A virus.
In data set [8] the test system is chicken red blood cells.
The nature of data set [9]: in vitro. The conditions noted are these: human, serum.
The test system of data set [10] is A/duck/Hokkaido/Vac-3/07 (H5N1/Vac-3). As to the kind of experiment: microbe, parasite or virus in culture. The class given is cell-based, influenza A virus.

As a reminder, the half-life is how long it takes for the measured level to halve. Low readings indicate rapid decline, high ones slow decline. In the case of `CC(C)[C@@H]1NC(=O)[C@H]([C@@H](C)O)NC(=O)[C@H](Cc2ccc(O)cc2)NC(=O)[C@H](Cc2c[nH]cn2)NC(=O)[C@H](CO)N(C)C(=O)[C@H](CO)NC(=O)[C@H](Cc2ccccc2)N(C)C(=O)[C@H](Cc2ccccc2)N(C)C(=O)[C@H](CC(=O)O)NC(=O)CN(C)C(=O)[C@H]([C@@H](C)O)NC(=O)[C@H](Cc2c[nH]c3ccccc23)NC(=O)CSC[C@@H](C(N)=O)NC(=O)[C@H](CCCNC(=N)N)NC(=O)[C@@H]2CCCN2C1=O` [iHA-100] ({CH2CO}-WT[Sar]D[NMeF][NMeF]S[NMeS]HYTVPRC-NH2; thioether N-15), in data set [1], the “Progression of pneumonia (histopathology)” value is reported as “prevented the progression of pneumonia”; the Survival is listed as 40%; the “Survival rate, administration started 0 days after infection” value was “comparable with the survival rate in the zanamivir-treated group”; the “Viral replication in the lungs” value is recorded as “significantly suppressed”. Also, the “Virus-related increase in lung weight” value in data set [1] is on record as “significantly suppressed”. Besides, in data set [2], the “IFN-γ in the lungs” value is listed as “significantly reduced”, the “IL-6 in the lungs” value was “significantly reduced”, the “IL-15 in the lungs” value is on record as “decreased” and the “Virus titers in autopsy lung samples at 7 dpi” value is “low virus titers in the lungs of two monkeys”. In addition, in data set [2] (3 mg/kg/day), the Body temperature result is “returned to a normal range”; the Bodyweight loss entry is recorded as “relatively attenuated”; the Lung weights result is listed as “relatively lower”; the “Virus in nasal, oral and bronchial swabs” value is “disappeared at 3–6 dpi”. Further, in [2] (po), the “Virus shedding after treatment (3–7 dpi), area under the curve” value was “significantly lower virus shedding”. In addition, in [3], the “Binding to HA on H1N1 virions (pull-down)” value is recorded as “bound to HA”. Besides, the “H1N1/Tokyo2619 virus-mediated RBC membrane fusion” value in [4] is listed as “inhibited by iHA-100 in a dose-dependent manner”. Moreover, the “Polykaryon formation mediated by H1 HA” value in data set [5] is “significantly inhibited”. Further, the “H5N1/Vac-3 virus-mediated RBC membrane fusion” value in data set [6] was “inhibited by iHA-100 in a dose-dependent manner”. Further, the “Binding to HA on H2N2 virions (pull-down)” value in [7] is recorded as “bound to HA”. In data set [8], the Inhibition of hemagglutination result is reported as “could not”. Moreover, in [9], the half-life was roughly 3.85 h. In addition, in data set [10], the “Plaque formation of H5N1/Vac-3 (screen of 28 candidates)” value is listed as “inhibited plaque formation” and the “Size of viral plaques” value is listed as “reduced the size of viral plaques”.
